# Source: US4092420A, “Novel soft N-chloroamino alcohol derivatives exhibiting antibacterial activity” (INTERx Research Corporation, priority 1977, dated 1978)
# Key:
# C. albicans = assay: Minimal inhibitory concentration (MIC), Example V; type: cell-based; settings: Candida albicans
# Excerpt: MINIMAL INHIBITORY CONCENTRATION OF 2-AMINO-2-METHYL-1-PROPYL […]
# (§1) THE ANTIBACTERIAL SCREEN - EXAMPLE V
# S. pyogenes = assay: Minimal inhibitory concentration (MIC), Example V; type: cell-based; settings: Streptococcus pyogenes
# E. coli [1] = assay: Contact germicidal efficiency (sterilization time); type: cell-based, Escherichia coli; settings: Example Y, pH 4.6, in presence of horse serum, 468 ppm (80 PPMCl+)
# Method: CONTACT GERMICIDAL EFFICIENCY OF
# (§2) ^a Time intervals screened 0.5, 1, 2, 3, 4 and 5 minutes.
# (§3) ^a Time intervals screened 0.5, 1, 2, 3, 4, 5, 6, 7, 8, 9 and 10
# (§4) ^a Time intervals screened 0.5, 1, 2, 3, 4, and 5 minutes.
# (§5) ^b Time intervals screened 0.5, 1, 2, 3, 4, 5, 6, 7, 8, 9 and 10
# (§6) Immediately preceding the screen, the compound is weighed and diluted with a buffer or other solvent to give the final concentration desired. The buffer or solvent chosen depends on the conditions of the screen and could be one of the following: 0.1 M NaOAc, pH 4.6; 0.1 M NaH2 PO4, pH 7.0; 0.1 M Na2 B4 O7, pH 8.8; 35% methanol in one of the aforementioned buffers; 10% Triton × 100 in buffer, etc.
# (§7) The positive chlorine concentration of the test solution is then determined iodometrically.
# Media used for the Screen are Nutrient Broth, BBL# 11479 and Nutrient Agar, BBL# 11472 prepared according to label directions. The broth is dispensed in 75 ml amounts of flasks for overnight cultures and in 5 ml amounts to culture tubes for subculturing during the Screen. Agar plates are prepared as usual. […]
# A 0.2 ml portion of the overnight culture is inoculated into 5 ml of 0.9% NaCl for use in controls. […] The earliest subculture time at which no growth is present in the subculture tube is considered the endpoint and is recorded as that time, e.g., 7 minutes. […]
# K. pneumoniae = assay: Contact germicidal efficiency (sterilization time); type: cell-based, Klebsiella pneumoniae
# Method: (§8) CONTACT GERMICIDAL EFFICIENCY OF N-CHLORAMINES AS A FUNCTION
# as §2, §3, §4, §5, §6, §7
# (§9) Media used for the Screen are Nutrient Broth, BBL# 11479 and Nutrient Agar, BBL# 11472 prepared according to label directions. The broth is dispensed in 75 ml amounts of flasks for overnight cultures and in 5 ml amounts to culture tubes for subculturing during the Screen. Agar plates are prepared as usual.
# (§10) Overnight cultures are prepared by inoculating from stock cultures into the 75 ml flasks of nutrient broth and incubating for 15 hours at 37° C.
# (§11) The iodometrically characterized test solution is dispensed in 5 ml amounts to seven small stoppered flasks. The organisms are screened one at a time as follows:
# (§12) A 0.2 ml portion of the overnight culture is inoculated into 5 ml of 0.9% NaCl for use in controls. A 0.2 ml portion of the overnight culture is inoculated into a flask containing 5 ml of the test solution, an automatic timer is simultaneously triggered and the solution mixed. At time intervals of 30 seconds, 1, 2, 3, 4, 5, 6, 7, 8, 9, and 10 minutes a loopful of the inoculated solution is subcultured into 5 ml of sterile nutrient broth and mixed by a Vortex Genie Mixer, the high dilution serving to stop the action of the compound. At the end of the ten minute screen, the entire procedure is repeated for each of the remaining six organisms. All of the subculture tubes are incubated at 37° C and checked for signs of growth by turbidity at 24 hr., 48 hr., 3, 5, and 7 days. The earliest subculture time at which no growth is present in the subculture tube is considered the endpoint and is recorded as that time, e.g., 7 minutes.
# (§13) The test solution is prepared and characterized as above but is made up at twice the concentration desired. The solution is diluted 1:1 with Rehydrated Tissue Culture Dessicated Horse Serum, Difco #5357-72 and dispensed in a 5 ml amount to a small flask. The mixture is incubated at Room Temperature for 30 minutes to allow denaturation of the compound by the serum and then screened as above.
# (§14) The 5 ml mixture of serum and test solution are prepared in sequence to allow as close to 30 minutes as possible before the beginning of the screen of each organism.
# (§15) Bacteria: Staphylococcus aureas Smith (or 209), Escherichia coli AB 1932-1, 1100/B22 and Vogel, Streptococcus pyogenes C203 Salmonella typhimurium 14028, Bacillus subtilis 6051-1, Klebsiella pneumoniae 10031, Pseudomonas aeruginosa 9027, Bordetella bronchiseptica 4617 and Staphylococcus epidermidis 12228.
# T. mentagrophytes = assay: Minimal inhibitory concentration (MIC), Example V; type: cell-based; settings: Trichophyton mentagrophytes
# Excerpt: (§16) MINIMAL INHIBITORY CONCENTRATION OF 2-AMINO-2-METHYL-1-PROPYL
# (§17) ^a Minimal inhibitory concentration expressed in parts per million
# (§18) sequence inhibited the test organism at the higher concentrations.
# as §1
# A. niger = assay: Minimal inhibitory concentration (MIC), Example V; type: cell-based; settings: Aspergillus niger
# Excerpt: as §16, §17, §18, §1
# E. coli [2] = assay: Minimal inhibitory concentration (MIC), Example V; type: cell-based; settings: Escherichia coli
# Excerpt: as §16, §17, §18, §1
# P. aeruginosa = assay: Contact germicidal efficiency (sterilization time); type: cell-based, Pseudomonas aeruginosa
# Method: as §8, §2, §3, §4, §5, §6, §7, §9, §10, §11, §12, §13, §14, §15
# S. epidermidis = assay: Contact germicidal efficiency (sterilization time); type: cell-based, Staphylococcus epidermidis; settings: S. epidermidis
# Method: as §8, §2, §3, §4, §5, §6, §7, §9, §10, §11, §12, §13, §14, §15
# [3] = Example X, pH 4.6, no horse serum, IV c 404 ppm (69 PPMCl+), IV g 489 ppm (143 PPMCl+)
# [4] = Example X, pH 7.0, no horse serum, IV c 1886 ppm (323 PPMCl+), IV g 409 ppm (120 PPMCl+)
# [5] = Example X, pH 9.3, no horse serum, IV c 1704 ppm (292 PPMCl+), IV g 319 ppm (94 PPMCl+)
# [6] = Example Y, pH 4.6, in presence of horse serum, 468 ppm (80 PPMCl+)
smiles,measurement,setting,value
"CC(C)(COC(=O)C(C)(C)C)NCl [IV c, 2-N-Chloroamino-2-methyl-1-propyl 2,2-dimethylproprionate]",MIC,C. albicans,> 250 µg/mL
same,MIC,S. pyogenes,> 125 µg/mL
same,Sterilization Time,E. coli [1],> 10 min
same,Sterilization Time,K. pneumoniae; [3],0.5 min
same,Sterilization Time,K. pneumoniae; [4],2 min
same,Sterilization Time,K. pneumoniae; [5],2 min
same,Sterilization Time,K. pneumoniae; [6],> 10 min
same,MIC,T. mentagrophytes,> 250 µg/mL
same,MIC,A. niger,> 250 µg/mL
same,MIC,E. coli [2],> 250 µg/mL
same,Sterilization Time,P. aeruginosa; [3],0.5 min
same,Sterilization Time,P. aeruginosa; [4],1 min
same,Sterilization Time,P. aeruginosa; [5],1 min
same,Sterilization Time,P. aeruginosa; [6],> 10 min
same,Sterilization Time,S. epidermidis; [3],0.5 min
same,Sterilization Time,S. epidermidis; [4],3 min
same,Sterilization Time,S. epidermidis; [5],4 min
same,Sterilization Time,S. epidermidis; [6],> 10 min
